Experiments:
soybean LOX = biological target: T1, soybean LOX (Glycine max, UniProt P08170); experiment: Inhibition of soybean LOX; format: biochemical; settings: for inhibition at 100 µM: read-out: Soybean LOX % inhibition (100 μΜ)
T1 construct: purchased Sigma-Aldrich and Fluka
T1 sequence (P08170 1-839): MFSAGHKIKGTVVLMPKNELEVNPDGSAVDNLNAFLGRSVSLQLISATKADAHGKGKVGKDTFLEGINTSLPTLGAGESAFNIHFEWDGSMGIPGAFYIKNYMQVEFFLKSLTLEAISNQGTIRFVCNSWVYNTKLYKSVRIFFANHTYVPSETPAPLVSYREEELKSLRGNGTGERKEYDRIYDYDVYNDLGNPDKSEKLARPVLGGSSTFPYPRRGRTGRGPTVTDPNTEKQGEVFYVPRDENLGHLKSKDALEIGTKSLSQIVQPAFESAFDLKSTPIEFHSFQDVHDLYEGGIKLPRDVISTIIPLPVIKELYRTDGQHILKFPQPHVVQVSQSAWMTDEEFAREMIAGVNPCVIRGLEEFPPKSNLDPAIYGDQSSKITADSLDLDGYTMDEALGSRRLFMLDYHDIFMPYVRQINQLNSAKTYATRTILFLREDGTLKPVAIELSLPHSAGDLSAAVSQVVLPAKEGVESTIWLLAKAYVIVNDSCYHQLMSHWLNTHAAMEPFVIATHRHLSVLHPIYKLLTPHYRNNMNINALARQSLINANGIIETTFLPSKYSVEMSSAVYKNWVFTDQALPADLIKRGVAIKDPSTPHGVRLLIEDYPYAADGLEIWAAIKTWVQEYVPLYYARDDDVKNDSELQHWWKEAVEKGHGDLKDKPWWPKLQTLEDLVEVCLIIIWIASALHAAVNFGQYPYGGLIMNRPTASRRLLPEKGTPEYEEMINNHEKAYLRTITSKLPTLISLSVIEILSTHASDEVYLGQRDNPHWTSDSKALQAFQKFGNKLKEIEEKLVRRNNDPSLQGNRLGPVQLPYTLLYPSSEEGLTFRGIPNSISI
Protocol: Soybean LOX is a plant enzyme which has been used widely as a prototype for studying the functional and structural properties of the homologous family of lipoxygenases, presenting satisfactory homology with the human 5-LOX [14]. Linoleic acid (LA) is a standard substrate for plant LOXs. In this protocol, all new molecules were tested as inhibitors of soybean LOX as an indication of their anti-inflammatory activity (Table 3).
For the reference sample in a UV cuvette 10 μL of the test sample (100 μM diluted in DMSO), 200 μL LOX solution (diluted in NaCl 0.9%), 100 μL LA (diluted in Tris buffer) and Tris buffer solution (pH 9) were added to a final volume of 1 mL. Respectively for the measurement sample, also in a UV cuvette 10 μL of test sample, 200 μL LOX solution, and Tris buffer solution (pH 9) were added to a final volume of 1mL. Standard and blank samples were prepared in the same way using DMSO (solvent) instead of the tested coumarin analogues.

[1] = IAM chromatography (IAM.PC.DD.2 column) and estimated human oral absorption; format: in vitro ADME; settings: for %HOA estimated human oral absorption: Equation (1) from logkw and physicochemical properties; for logkw (IAM retention factor): pH 7.40, IAM.PC.DD.2, intercept at pure aqueous phase
Protocol: The immobilized artificial membrane (IAM) chromatographic behavior of the 25 novel coumarin derivatives was studied. IAM stationary phases consisting of monolayers of phospholipids (e.g., phosphatidylcholine, PC) immobilized on a propylamine–silica support can simulate interactions of chemicals with cell membranes.
Using an IAM.PC.DD2 column (Regis Technologies) as the stationary phase with PBS as the mobile phase at pH = 7.40, and a flow rate of 3 mL/min in the presence of acetonitrile fractions (C%) of 10%, 15%, 20%, 25%, and 30%, a logkC% value was obtained via the retention time for each concentration of CH3CN. Retention factors were then used to plot logkC% as a function of acetonitrile fraction. The intercept of the linear regression corresponds to the logkw, corresponding to pure aqueous phase.
(1) % HOA=100/1+10^−(2.17+0.88*logkw−0.006*MW−0.83*A−0.53*F^*++1.18*F^*−)
(§1) The physicochemical and biomimetic properties of the new coumarin analogues were studied using liquid chromatography (HPLC) in 220–230 nm Two types of chromatographic columns were used: (i) immobilized artificial membrane (IAM) ([…].PC.DD.2, Regis Technologies) column and (ii) human serum albumin (HSA) (CHIRAL PAK) column.
(§2) The training set consisted of 25 neutral and slightly acidic compounds. Their IAM retention factors were measured at pH 7.40 on a IAM.PC.DD.2 column. The mobile phase consisted of acetonitrile solvent (CH3CN) in various concentrations (10%, 15%, 20%, 25%, 30%) and a flow rate of 3 mL/min was selected. Their HSA retention factors were measured at pH 7.00 on HSA column. The mobile phase consisted of acetonitrile solvent (CH3CN) in 10% concentration and a flow rate of 1 mL/min was selected.
(§3) The different pH values (7.00 for HSA and 7.40 for IAM) were measured with an electronic pH meter MP125 and were achieved by preparing suitable buffers of phosphates and chlorides (0.12 g KH2PO4, 0.72 g Na2HPO4·2H2O, 4.00 g NaCl and 0.10 g KCl). Sodium citrate solution was used to determine the dead time, which was deducted from the results at the end of measurements. The elution time of each coumarin analogue was measured at least three times. Retention times were converted into logk values, which represent the logarithm of the retention indexes, using Equation (8). (8) logk=log(tr−t0/t0) where tr is the retention time of the coumarin derivative and t0 is the dead time.

[2] = biological target: T2, human serum albumin (HSA) (Homo sapiens, UniProt P02768); experiment: HSA chromatography and estimated plasma protein binding; format: in vitro ADME; settings: for fraction unbound: human, immobilized human serum albumin (HSA) column, Equation (2) from logk10, pH 7.00, read-out: %PPB estimated plasma protein binding (converted); for logk10 (HSA retention factor): pH 7.00, 10% acetonitrile
T2 construct: purchased CHIRAL PAK
T2 sequence (P02768 25-609): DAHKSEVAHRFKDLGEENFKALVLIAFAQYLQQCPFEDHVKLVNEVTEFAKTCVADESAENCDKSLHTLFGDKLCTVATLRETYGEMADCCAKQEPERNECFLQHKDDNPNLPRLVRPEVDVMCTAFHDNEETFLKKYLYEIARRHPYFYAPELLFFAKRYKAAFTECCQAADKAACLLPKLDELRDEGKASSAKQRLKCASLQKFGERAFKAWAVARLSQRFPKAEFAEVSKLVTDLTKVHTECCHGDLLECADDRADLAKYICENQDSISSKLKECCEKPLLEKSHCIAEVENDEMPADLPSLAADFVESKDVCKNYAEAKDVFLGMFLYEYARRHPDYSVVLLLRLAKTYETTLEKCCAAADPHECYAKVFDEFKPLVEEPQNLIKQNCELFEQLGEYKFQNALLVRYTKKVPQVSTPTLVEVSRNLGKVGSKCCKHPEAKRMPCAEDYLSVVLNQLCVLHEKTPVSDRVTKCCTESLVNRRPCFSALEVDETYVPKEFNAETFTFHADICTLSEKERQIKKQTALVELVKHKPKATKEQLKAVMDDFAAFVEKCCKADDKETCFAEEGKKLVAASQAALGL
Protocol: The novel coumarin derivatives were also studied using the immobilized protein column HSA. An HSA chromatographic column provides estimates on the binding affinities of chemicals to human serum albumin, which is the most abundant plasma protein and is related to drug efficacy, drug—drug pharmacokinetic interactions, and drug safety. HSA binding can be considered to represent almost the total plasma protein binding of a drug.
Retention factors on the HSA stationary phase were measured using as eluent PBS at pH = 7.00 and a flow rate of 1 mL/min in the presence of 10% acetonitrile.
(2) % PPB=101∗10^logk10/1+10^logk10
as §1, §2, §3

Compound | inhibition at 100 µM (soybean LOX) | %HOA estimated human oral absorption [1] | logkw (IAM retention factor) [1] | fraction unbound [2] | logk10 (HSA retention factor) [2] | IC50 (soybean LOX)
Cc1c(-c2cccc(Cl)c2)c(=O)oc2cccc(O)c12 [Compound 4b, 3-(3-chlorophenyl)-5-hydroxy-4-methyl-chromen-2-one] | 47.3% | 99.9% | 3.73 | 0.201 | 0.58 | 
Cc1c(-c2ccc(Cl)cc2)c(=O)oc2cccc(O)c12 [Compound 4c, 3-(4-chlorophenyl)-5-hydroxy-4-methyl-chromen-2-one] | 0.9% | 100% | 4.53 | 0.152 | 0.72 | 
Cc1c(-c2ccccc2F)c(=O)oc2cccc(O)c12 [Compound 4d, 3-(2-fluorophenyl)-5-hydroxy-4-methyl-chromen-2-one] |  | 100% | 4.69 | 0.152 | 0.72 | 31.6 µM
Cc1c(-c2cccc(F)c2)c(=O)oc2cccc(O)c12 [Compound 4e, 3-(3-fluorophenyl)-5-hydroxy-4-methyl-chromen-2-one] |  | 99.9% | 3.23 | 0.034 | 1.34 | 4.1 µM
Cc1c(-c2ccc(F)cc2)c(=O)oc2cccc(O)c12 [Compound 4f, 3-(4-fluorophenyl)-5-hydroxy-4-methyl-chromen-2-one] | 39.2% | 99.7% | 2.62 | 0.163 | 0.68 | 
Cc1c(-c2ccc(O)cc2)c(=O)oc2ccccc12 [Compound 4h, 3-(4-hydroxyphenyl)-4-methyl-chromen-2-one] | 27.2% | 99.8% | 3.34 | 0.03 | 1.38 | 
Cc1c(-c2ccc(O)cc2)c(=O)oc2ccc(Br)cc12 [Compound 4i, 6-bromo-3-(4-hydroxyphenyl)-4-methyl-chromen-2-one] | 19.3% | 99.9% | 3.23 | 0.043 | 1.26 | 
Cc1c(-c2ccc(O)cc2)c(=O)oc2ccc(Cl)cc12 [Compound 4j, 6-chloro-3-(4-hydroxyphenyl)-4-methyl-chromen-2-one] | 35% | 99.5% | 3.41 | 0.196 | 0.59 | 
